Test results reported in patent publication US8993483B2, “Combination of active substances with insecticidal properties” (Bayer Intellectual Property GmbH, priority 2003, dated 2015).

test system: caterpillars of the cotton boll worm (Heliothis armigera); assay: Heliothis armigera test (cabbage leaf dip, kill rate); type: in vivo; conditions: single active compound, 4 ppm
Excerpt: (§1) The expected action for a given combination of two active compounds can be calculated as follows, according to S. R. Colby, Weeds 15 (1967), 20-22:
(§2) • X is the kill rate, expressed as a percentage of the untreated control, when employing active compound A at an application rate of m g/ha or in a concentration of m ppm, • Y is the kill rate, expressed as a percentage of the untreated control, when employing active compound B at an application rate of n g/ha or in a concentration of n ppm and • E is the kill rate, expressed as a percentage of the untreated control, when employing active compounds A and B at application rates of m and n g/ha or in a concentration of m and n ppm, then
(§3) If the actual insecticidal kill rate exceeds the calculated value, the action of the combination is superadditive, i.e. a synergistic effect is present. In this case, the actually observed kill rate must exceed the value calculated using the above formula for the expected kill rate (E).
(§4) To produce a suitable preparation of active compound, 1 part by weight of active compound is mixed with the stated amounts of solvent and emulsifier, and the concentrate is diluted with emulsifier-containing water to the desired concentration.
Cabbage leaves (Brassica oleracea) are treated by being dipped into the preparation of active compound of the desired concentration and are populated with caterpillars of the cotton boll worm (Heliothis armigera) while the leaves are still moist.
(§5) After the desired period of time, the kill in % is determined. 100% means that all caterpillars have been killed; 0% means that none of the caterpillars have been killed. The kill rates determined are calculated using Colby's formula (see page 43).

Compound	Kill rate in % after 6 d, found
N#C/N=C1\SCCN1Cc1ccc(Cl)nc1 [Ik, thiacloprid]	25%

test system: caterpillars of the diamond back moth (Plutella xylostella, normally sensitive strain); assay: Plutella xylostella test (normally sensitive strain; cabbage leaf dip, kill rate); type: in vivo; conditions: single active compound, 4 ppm
Excerpt: as §1, §2, §3
Plutella xylostella Test (Normally Sensitive Strain)
as §4
Cabbage leaves (Brassica oleracea) are treated by being dipped into the preparation of active compound of the desired concentration and are populated with larvae of caterpillars of the diamond back moth (Plutella xylostella, normally sensitive strain) while the leaves are still moist.
After the desired period of time, the kill in % is determined. 100% means that all caterpillars have been killed; 0% means that none of the caterpillars have been killed. The kill rates determined are calculated using Colby's formula (see sheet 1).

Compound	Kill rate in % after 6 d, found
N#C/N=C1\SCCN1Cc1ccc(Cl)nc1 [Ik, thiacloprid]	0%

test system: caterpillars of the armyworm (Spodoptera frugiperda); assay: Spodoptera frugiperda test (cabbage leaf dip, kill rate); type: in vivo; conditions: single active compound, 4 ppm
Excerpt: as §1, §2, §3
Spodoptera frugiperda Test
as §4
Cabbage leaves (Brassica oleracea) are treated by being dipped into the preparation of active compound of the desired concentration and are populated with caterpillars of the armyworm (Spodoptera frugiperda) while the leaves are still moist.
as §5

Compound	Kill rate in % after 6 d, found
N#C/N=C1\SCCN1Cc1ccc(Cl)nc1 [Ik, thiacloprid]	0%

test system: not given; assay: not given; conditions: not given

Compound	melting point
Cc1cc(Cl)cc(C(=O)NC(C)C)c1NC(=O)c1cc(OCC(F)(F)F)nn1-c1ncccc1Cl	217 to 218 °C
CC(C)NC(=O)c1cc(Cl)cc(Cl)c1NC(=O)c1cc(C(F)(F)F)nn1-c1ncccc1Cl	200 to 201 °C
CC(C)NC(=O)c1cc(Cl)cc(Cl)c1NC(=O)c1cc(OCC(F)(F)F)nn1-c1ncccc1Cl	232 to 235 °C
CC(C)NC(=O)c1cc(Cl)cc(Cl)c1NC(=O)c1cc(Cl)nn1-c1ncccc1Cl	197 to 199 °C
CC(C)NC(=O)c1cc(Cl)cc(Cl)c1NC(=O)c1cc(Br)nn1-c1ncccc1Cl	188 to 190 °C
CCNC(=O)c1cc(Cl)cc(C)c1NC(=O)c1cc(C(F)(F)F)nn1-c1ncccc1Cl	163 to 164 °C
CCNC(=O)c1cc(Cl)cc(C)c1NC(=O)c1cc(OCC(F)(F)F)nn1-c1ncccc1Cl	205 to 207 °C
CCNC(=O)c1cc(Cl)cc(C)c1NC(=O)c1cc(Cl)nn1-c1ncccc1Cl	199 to 200 °C
CNC(=O)c1cc(Cl)cc(C)c1NC(=O)c1cc(OCC(F)(F)F)nn1-c1ncccc1Cl	207 to 208 °C
CCNC(=O)c1cc(Cl)cc(C)c1NC(=O)c1cc(Br)nn1-c1ncccc1Cl	194 to 195 °C
CCNC(=O)c1cc(Cl)cc(Cl)c1NC(=O)c1cc(C(F)(F)F)nn1-c1ncccc1Cl	201 to 202 °C
CCNC(=O)c1cc(Cl)cc(Cl)c1NC(=O)c1cc(Cl)nn1-c1ncccc1Cl	206 to 208 °C
CCNC(=O)c1cc(Cl)cc(Cl)c1NC(=O)c1cc(Br)nn1-c1ncccc1Cl	214 to 215 °C
Cc1cc(Cl)cc(C(=O)NC(C)(C)C)c1NC(=O)c1cc(C(F)(F)F)nn1-c1ncccc1Cl	223 to 225 °C
Cc1cc(Cl)cc(C(=O)NC(C)(C)C)c1NC(=O)c1cc(Cl)nn1-c1ncccc1Cl	163 to 165 °C
Cc1cc(Cl)cc(C(=O)NC(C)(C)C)c1NC(=O)c1cc(Br)nn1-c1ncccc1Cl	159 to 161 °C
CC(C)(C)NC(=O)c1cc(Cl)cc(Cl)c1NC(=O)c1cc(C(F)(F)F)nn1-c1ncccc1Cl	170 to 172 °C
CC(C)(C)NC(=O)c1cc(Cl)cc(Cl)c1NC(=O)c1cc(Cl)nn1-c1ncccc1Cl	172 to 173 °C
CC(C)(C)NC(=O)c1cc(Cl)cc(Cl)c1NC(=O)c1cc(Br)nn1-c1ncccc1Cl	179 to 180 °C
CNC(=O)c1cc(Cl)cc(C)c1NC(=O)c1cc(Cl)nn1-c1ncccc1Cl	225 to 226 °C
CNC(=O)c1cc(Br)cc(C)c1NC(=O)c1cc(C(F)(F)F)nn1-c1ncccc1Cl	222 to 223 °C
CCNC(=O)c1cc(Br)cc(C)c1NC(=O)c1cc(C(F)(F)F)nn1-c1ncccc1Cl	192 to 193 °C

Compound	melting point
Cc1cc(Br)cc(C(=O)NC(C)C)c1NC(=O)c1cc(C(F)(F)F)nn1-c1ncccc1Cl	197 to 198 °C
Cc1cc(Br)cc(C(=O)NC(C)(C)C)c1NC(=O)c1cc(C(F)(F)F)nn1-c1ncccc1Cl	247 to 248 °C
CNC(=O)c1cc(Br)cc(C)c1NC(=O)c1cc(Cl)nn1-c1ncccc1Cl	140 to 141 °C
CCNC(=O)c1cc(Br)cc(C)c1NC(=O)c1cc(Cl)nn1-c1ncccc1Cl	192 to 194 °C
Cc1cc(Br)cc(C(=O)NC(C)C)c1NC(=O)c1cc(Cl)nn1-c1ncccc1Cl	152 to 153 °C
Cc1cc(Br)cc(C(=O)NC(C)(C)C)c1NC(=O)c1cc(Cl)nn1-c1ncccc1Cl	224 to 225 °C
CNC(=O)c1cc(Br)cc(C)c1NC(=O)c1cc(Br)nn1-c1ncccc1Cl	147 to 149 °C
CCNC(=O)c1cc(Br)cc(C)c1NC(=O)c1cc(Br)nn1-c1ncccc1Cl	194 to 196 °C
Cc1cc(Br)cc(C(=O)NC(C)C)c1NC(=O)c1cc(Br)nn1-c1ncccc1Cl	185 to 187 °C
Cc1cc(Br)cc(C(=O)NC(C)(C)C)c1NC(=O)c1cc(Br)nn1-c1ncccc1Cl	215 to 221 °C
CNC(=O)c1cc(I)cc(C)c1NC(=O)c1cc(C(F)(F)F)nn1-c1ncccc1Cl	199 to 200 °C
CCNC(=O)c1cc(I)cc(C)c1NC(=O)c1cc(C(F)(F)F)nn1-c1ncccc1Cl	199 to 200 °C
Cc1cc(I)cc(C(=O)NC(C)C)c1NC(=O)c1cc(C(F)(F)F)nn1-c1ncccc1Cl	188 to 189 °C
Cc1cc(I)cc(C(=O)NC(C)(C)C)c1NC(=O)c1cc(C(F)(F)F)nn1-c1ncccc1Cl	242 to 243 °C
CNC(=O)c1cc(I)cc(C)c1NC(=O)c1cc(Cl)nn1-c1ncccc1Cl	233 to 234 °C
CCNC(=O)c1cc(I)cc(C)c1NC(=O)c1cc(Cl)nn1-c1ncccc1Cl	196 to 197 °C
Cc1cc(I)cc(C(=O)NC(C)C)c1NC(=O)c1cc(Cl)nn1-c1ncccc1Cl	189 to 190 °C
Cc1cc(I)cc(C(=O)NC(C)(C)C)c1NC(=O)c1cc(Cl)nn1-c1ncccc1Cl	228 to 229 °C
CNC(=O)c1cc(Cl)cc(Cl)c1NC(=O)c1cc(C(F)(F)F)nn1-c1ncccc1Cl	155 to 157 °C
CNC(=O)c1cc(I)cc(C)c1NC(=O)c1cc(Br)nn1-c1ncccc1Cl	229 to 230 °C
Cc1cc(I)cc(C(=O)NC(C)C)c1NC(=O)c1cc(Br)nn1-c1ncccc1Cl	191 to 192 °C
CNC(=O)c1cc(Br)cc(Br)c1NC(=O)c1cc(C(F)(F)F)nn1-c1ncccc1Cl	162 to 163 °C

Compound	melting point
CCNC(=O)c1cc(Br)cc(Br)c1NC(=O)c1cc(C(F)(F)F)nn1-c1ncccc1Cl	188 to 189 °C
CC(C)NC(=O)c1cc(Br)cc(Br)c1NC(=O)c1cc(C(F)(F)F)nn1-c1ncccc1Cl	192 to 193 °C
CC(C)(C)NC(=O)c1cc(Br)cc(Br)c1NC(=O)c1cc(C(F)(F)F)nn1-c1ncccc1Cl	246 to 247 °C
CNC(=O)c1cc(Br)cc(Br)c1NC(=O)c1cc(Cl)nn1-c1ncccc1Cl	188 to 190 °C
CCNC(=O)c1cc(Br)cc(Br)c1NC(=O)c1cc(Cl)nn1-c1ncccc1Cl	192 to 194 °C
CC(C)NC(=O)c1cc(Br)cc(Br)c1NC(=O)c1cc(Cl)nn1-c1ncccc1Cl	197 to 199 °C
CC(C)(C)NC(=O)c1cc(Br)cc(Br)c1NC(=O)c1cc(Cl)nn1-c1ncccc1Cl	210 to 212 °C
CNC(=O)c1cc(Cl)cc(Cl)c1NC(=O)c1cc(OCC(F)(F)F)nn1-c1ncccc1Cl	192 to 195 °C
CNC(=O)c1cc(Br)cc(Br)c1NC(=O)c1cc(Br)nn1-c1ncccc1Cl	166 to 168 °C
CCNC(=O)c1cc(Br)cc(Br)c1NC(=O)c1cc(Br)nn1-c1ncccc1Cl	196 to 197 °C
CC(C)NC(=O)c1cc(Br)cc(Br)c1NC(=O)c1cc(Br)nn1-c1ncccc1Cl	162 to 163 °C
CC(C)(C)NC(=O)c1cc(Br)cc(Br)c1NC(=O)c1cc(Br)nn1-c1ncccc1Cl	194 to 196 °C
CC(C)(C)NC(=O)c1cc(Br)cc(Cl)c1NC(=O)c1cc(C(F)(F)F)nn1-c1ncccc1Cl	143 to 145 °C
CN(C)C(=O)c1cc(Br)cc(Br)c1NC(=O)c1cc(Cl)nn1-c1ncccc1Cl	153 to 155 °C
Cc1cc(Br)cc(C(=O)N(C)C)c1NC(=O)c1cc(C(F)(F)F)nn1-c1ncccc1Cl	207 to 208 °C
CN(C)C(=O)c1cc(Cl)cc(Cl)c1NC(=O)c1cc(Cl)nn1-c1ncccc1Cl	231 to 232 °C
CN(C)C(=O)c1cc(Br)cc(Br)c1NC(=O)c1cc(Br)nn1-c1ncccc1Cl	189 to 190 °C
CN(C)C(=O)c1cc(Cl)cc(Cl)c1NC(=O)c1cc(Br)nn1-c1ncccc1Cl	216 to 218 °C
CNC(=O)c1cc(Cl)cc(Cl)c1NC(=O)c1cc(Cl)nn1-c1ncccc1Cl	205 to 206 °C
CN(C)C(=O)c1cc(Cl)cc(Cl)c1NC(=O)c1cc(C(F)(F)F)nn1-c1ncccc1Cl	225 to 227 °C
CN(C)C(=O)c1cc(Br)cc(Br)c1NC(=O)c1cc(C(F)(F)F)nn1-c1ncccc1Cl	228 to 229 °C
CNC(=O)c1cc(Cl)cc(Cl)c1NC(=O)c1cc(Br)nn1-c1ncccc1Cl	245 to 246 °C
